Active and inactive are the calls of the source.
What was measured:
[1] = tested on: Streptococcus sp. 'group A'; test: growth inhibition of control SK(-) GAS strain, dose response, counter-screen for streptokinase expression inhibitor project, luminescence, kanamycin, BacTiterGlo, confirmation (AID 1900); assay type: functional, organism-based
[2] = tested on: Streptococcus; test: Luminescence Microorganism-Based Dose Response Follow up to Identify Compounds Cytotoxic to Streptococcus. [Related pubchem assays: 1677 (Project Summary), 1915, 1914, 1902 (Retest at Dose), 1900 (Counter Screen), 1662 (Primary HTS)]; assay type: functional, organism-based
[3] = target: T1, Streptokinase A (Streptococcus pyogenes serotype M1, UniProt P10520); test: S. pyogenes streptokinase expression inhibitors, potency, dose response, plasminogen activation absorbance, OD405 (AID 1914); assay type: functional, Streptococcus pyogenes M1 GAS;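 note: secreted streptokinase activity via plasminogen activation per viability signal from cell pellet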
T1 sequence (P10520 whole entry): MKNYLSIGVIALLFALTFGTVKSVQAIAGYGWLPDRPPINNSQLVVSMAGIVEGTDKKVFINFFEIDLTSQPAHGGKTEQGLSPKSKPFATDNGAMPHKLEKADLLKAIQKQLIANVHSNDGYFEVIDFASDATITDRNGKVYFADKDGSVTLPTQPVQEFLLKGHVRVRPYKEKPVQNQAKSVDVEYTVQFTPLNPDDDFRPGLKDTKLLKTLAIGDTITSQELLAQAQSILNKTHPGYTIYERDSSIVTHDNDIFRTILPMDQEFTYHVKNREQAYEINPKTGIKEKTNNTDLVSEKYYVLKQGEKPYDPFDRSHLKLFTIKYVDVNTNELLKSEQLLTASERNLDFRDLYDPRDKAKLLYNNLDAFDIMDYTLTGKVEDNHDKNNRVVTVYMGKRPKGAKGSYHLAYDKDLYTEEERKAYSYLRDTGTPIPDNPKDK

[4] = tested on: Streptococcus; test: Group A Streptococcus viability loss, dose response, counter-screen for streptokinase expression inhibitor project, luminescence, BacTiterGlo (AID 1915); assay type: functional, organism-based; settings: read-out: EC50;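 note: potency for reduction of bacterial viability or growth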
[5] = Luminescence Cell-Based Dose Retest to Confirm Inhibitors of Cancer Stem Cells. [Related pubchem assays (depositor defined):AID2717, AID2721]; assay type: functional; settings: Homo sapiens
[6] = tested on: INS1; test: beta cell apoptosis inhibitors, cytokine rescue, dose response, luminescence, retest (AID 449756); assay type: functional, cell-based; settings: Rattus norvegicus;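 note: cell death triggered by IL-1 beta plus TNF-alpha plus IFN-gamma mixture; protective hits raise ATP signal compared with cytokine alone wells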
[7] = Shn3 3'UTR reporter inhibitors, dose response, cell-based, Clone20 osteoblasts, firefly luciferase, cherry-picked (AID 624132); assay type: functional;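 note: firefly luciferase luminescence from reporter carrying the Shn3 3'UTR in osteoblasts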
[8] = control 3'UTR Renilla luciferase suppression, dose response, counter-screen for Shn3 inhibitor project, cell-based, Clone20-Shn3RL, cherry-picked (AID 624133); assay type: functional
[9] = Counterscreen for IDE inhibitors: Luminescence-based cell-based high throughput dose response assay to identify compounds that are cytotoxic to HEK cells. [Related pubchem assays: 434962 (Primary screen (IDE inhibitors in singlicate)), 449730 (Counterscreen (Cytotoxicity in triplicate)), 435028 (Confirmation (IDE inhibitors in triplicate)) …; assay type: functional; settings: HEK293
[10] = target: T2, Insulin-degrading enzyme (Homo sapiens, UniProt P14735); test: Dose Response: Fluorescence polarization-based cell-based high throughput dose response assay for inhibitors of insulin-degrading enzyme (IDE). [Related pubchem assays: 434962 (Primary screen (IDE inhibitors in singlicate)), 449730 (Counterscreen (Cytotoxicity in triplicate)), 435028 (Confirmation (IDE inhibitors in triplicate)), 434984 (Summary …; assay type: functional
T2 sequence (P14735 whole entry): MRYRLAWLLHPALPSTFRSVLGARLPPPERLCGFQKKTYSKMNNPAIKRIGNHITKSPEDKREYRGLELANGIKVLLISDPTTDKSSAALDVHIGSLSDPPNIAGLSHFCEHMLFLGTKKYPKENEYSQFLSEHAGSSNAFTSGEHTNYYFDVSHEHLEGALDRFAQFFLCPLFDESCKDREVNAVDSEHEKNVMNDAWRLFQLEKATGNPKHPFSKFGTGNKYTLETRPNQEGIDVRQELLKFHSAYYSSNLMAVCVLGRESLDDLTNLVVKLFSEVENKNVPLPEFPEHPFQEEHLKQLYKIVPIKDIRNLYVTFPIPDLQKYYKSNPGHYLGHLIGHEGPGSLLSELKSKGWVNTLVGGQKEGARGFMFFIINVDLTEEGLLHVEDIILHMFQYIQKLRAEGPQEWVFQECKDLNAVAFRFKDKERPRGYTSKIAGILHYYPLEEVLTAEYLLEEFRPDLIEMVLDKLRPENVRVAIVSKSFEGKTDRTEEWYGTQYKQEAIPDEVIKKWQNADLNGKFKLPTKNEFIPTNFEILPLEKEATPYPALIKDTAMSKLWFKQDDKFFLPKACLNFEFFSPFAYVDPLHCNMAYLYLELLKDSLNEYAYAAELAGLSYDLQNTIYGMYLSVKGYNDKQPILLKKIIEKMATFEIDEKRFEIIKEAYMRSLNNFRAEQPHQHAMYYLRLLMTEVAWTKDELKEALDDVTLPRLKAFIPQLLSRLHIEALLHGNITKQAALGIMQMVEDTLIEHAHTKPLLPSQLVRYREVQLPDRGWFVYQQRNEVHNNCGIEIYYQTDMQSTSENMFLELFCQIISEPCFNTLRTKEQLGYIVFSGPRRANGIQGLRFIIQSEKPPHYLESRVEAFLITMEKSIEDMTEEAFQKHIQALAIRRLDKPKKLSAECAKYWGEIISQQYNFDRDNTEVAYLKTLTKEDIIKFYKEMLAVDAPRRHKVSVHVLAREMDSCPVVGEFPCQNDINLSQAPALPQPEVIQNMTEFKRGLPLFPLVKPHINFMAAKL

[11] = target: T3, High affinity choline transporter 1 (Homo sapiens, UniProt Q9GZV3); test: CHT inhibitors, dose response, cell-based, 5-point CRC, membrane potential dye (AID 504840); assay type: functional
T3 sequence (Q9GZV3 whole entry): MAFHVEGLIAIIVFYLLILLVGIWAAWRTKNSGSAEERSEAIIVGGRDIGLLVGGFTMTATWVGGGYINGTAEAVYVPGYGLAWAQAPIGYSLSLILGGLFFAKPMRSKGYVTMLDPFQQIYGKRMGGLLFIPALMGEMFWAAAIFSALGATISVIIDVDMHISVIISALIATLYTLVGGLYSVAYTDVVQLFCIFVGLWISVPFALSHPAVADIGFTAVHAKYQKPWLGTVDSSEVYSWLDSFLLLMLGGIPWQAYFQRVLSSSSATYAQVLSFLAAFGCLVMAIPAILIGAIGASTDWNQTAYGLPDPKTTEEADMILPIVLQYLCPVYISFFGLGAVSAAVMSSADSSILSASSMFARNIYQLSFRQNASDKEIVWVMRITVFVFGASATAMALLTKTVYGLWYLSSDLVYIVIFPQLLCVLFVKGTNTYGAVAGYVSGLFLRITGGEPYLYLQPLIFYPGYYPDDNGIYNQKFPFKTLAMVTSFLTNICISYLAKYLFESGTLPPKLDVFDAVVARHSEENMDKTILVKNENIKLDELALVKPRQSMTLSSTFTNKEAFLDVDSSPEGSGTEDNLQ

[12] = target: T3, High affinity choline transporter 1; test: CHT inhibitors, dose response, cell-based, 10-point CRC, membrane potential dye (AID 588401); assay type: functional;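 note: membrane potential dye fluorescence of choline-evoked depolarization via CHT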
[13] = target: Photoreceptor-specific nuclear receptor (Homo sapiens, UniProt Q9Y5X4); assay type: functional;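 note: potency for compounds that break the NR2E3 corepressor complex and count as activators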
[14] = target: Peroxisome proliferator-activated receptor gamma/Nuclear receptor corepressor 2 (Homo sapiens, UniProt P37231+Q9Y618); assay type: functional
[15] = target: T4, Corticotropin-releasing factor receptor 2/Corticotropin-releasing factor-binding protein (Homo sapiens, UniProt P24387+Q13324); test: activators of CRF receptor 2 with binding protein – uHTS hits, confirmation (AID 602473); assay type: functional; settings: read-out: EC50_Mean
T4 sequence (Q13324 whole entry): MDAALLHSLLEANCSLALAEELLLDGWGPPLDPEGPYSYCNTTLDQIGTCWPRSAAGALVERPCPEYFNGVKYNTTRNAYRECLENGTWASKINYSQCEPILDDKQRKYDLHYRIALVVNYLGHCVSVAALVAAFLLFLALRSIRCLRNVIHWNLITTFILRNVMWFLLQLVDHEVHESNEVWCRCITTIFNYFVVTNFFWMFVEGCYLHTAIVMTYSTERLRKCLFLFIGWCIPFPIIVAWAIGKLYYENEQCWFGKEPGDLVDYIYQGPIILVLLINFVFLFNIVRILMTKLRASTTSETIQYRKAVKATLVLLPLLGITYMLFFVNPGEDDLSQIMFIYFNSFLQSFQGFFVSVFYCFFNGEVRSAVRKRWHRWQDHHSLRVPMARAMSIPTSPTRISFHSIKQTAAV
T4 sequence (P24387 whole entry): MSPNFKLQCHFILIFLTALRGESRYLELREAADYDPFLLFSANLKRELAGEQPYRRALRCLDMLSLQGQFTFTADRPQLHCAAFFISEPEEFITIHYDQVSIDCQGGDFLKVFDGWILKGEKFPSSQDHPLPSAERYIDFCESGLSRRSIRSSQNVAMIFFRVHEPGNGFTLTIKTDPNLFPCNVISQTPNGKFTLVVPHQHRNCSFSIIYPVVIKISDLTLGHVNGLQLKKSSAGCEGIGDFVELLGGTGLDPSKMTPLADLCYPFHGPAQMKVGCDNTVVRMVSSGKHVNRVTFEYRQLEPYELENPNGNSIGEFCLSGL

[16] = target: T5, Neuropeptides B/W receptor type 1 (Homo sapiens, UniProt P48145); test: Fluorescence-based dose response cell-based high throughput screening assay to identify antagonists of the G-protein coupled receptor 7 (GPR7). [Related pubchem assays: 1952 (Screening assay (GPR7 antagonists).), 1880 (Summary AID.)]; assay type: functional
T5 sequence (P48145 whole entry): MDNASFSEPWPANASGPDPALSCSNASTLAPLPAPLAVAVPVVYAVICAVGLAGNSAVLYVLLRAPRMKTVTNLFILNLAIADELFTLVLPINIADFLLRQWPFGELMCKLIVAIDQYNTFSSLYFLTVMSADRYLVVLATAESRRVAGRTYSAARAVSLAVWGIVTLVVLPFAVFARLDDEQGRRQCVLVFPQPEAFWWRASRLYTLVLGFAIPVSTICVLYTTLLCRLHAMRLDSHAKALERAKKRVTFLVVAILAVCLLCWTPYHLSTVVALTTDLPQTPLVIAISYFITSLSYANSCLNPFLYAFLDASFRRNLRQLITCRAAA

[17] = target: Melanin-concentrating hormone receptor 1 (Homo sapiens, UniProt Q99705); test: Fluorescence-based counterscreen for antagonists of the G-protein coupled receptor 7 (GPR7): cell-based high throughput dose response assay to identify antagonists of the melanin-concentrating hormone receptor 1 (MCHR1).; assay type: functional
Sequence of Melanin-concentrating hormone receptor 1 (Q99705 whole entry): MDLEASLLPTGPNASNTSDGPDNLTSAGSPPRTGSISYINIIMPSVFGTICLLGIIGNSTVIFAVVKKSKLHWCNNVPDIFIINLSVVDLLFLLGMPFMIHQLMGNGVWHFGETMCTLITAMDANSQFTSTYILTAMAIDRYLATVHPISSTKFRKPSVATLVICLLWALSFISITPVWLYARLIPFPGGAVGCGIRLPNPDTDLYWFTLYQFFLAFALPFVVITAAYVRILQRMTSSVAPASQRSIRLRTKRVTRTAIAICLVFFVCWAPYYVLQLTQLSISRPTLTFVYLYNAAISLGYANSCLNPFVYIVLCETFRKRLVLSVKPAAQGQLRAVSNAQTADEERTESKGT

Sequence of Photoreceptor-specific nuclear receptor (Q9Y5X4 whole entry): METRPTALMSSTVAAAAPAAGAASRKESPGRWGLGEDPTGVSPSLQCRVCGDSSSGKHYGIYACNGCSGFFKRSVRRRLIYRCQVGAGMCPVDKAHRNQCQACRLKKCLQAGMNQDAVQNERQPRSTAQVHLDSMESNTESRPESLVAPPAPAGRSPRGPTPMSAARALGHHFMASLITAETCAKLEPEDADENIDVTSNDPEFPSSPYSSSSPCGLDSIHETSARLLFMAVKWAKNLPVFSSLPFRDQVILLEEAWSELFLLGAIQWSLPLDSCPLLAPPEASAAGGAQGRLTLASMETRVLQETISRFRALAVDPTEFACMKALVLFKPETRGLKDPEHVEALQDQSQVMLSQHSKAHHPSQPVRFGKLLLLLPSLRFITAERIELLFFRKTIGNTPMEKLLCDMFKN
Sequence of Peroxisome proliferator-activated receptor gamma/Nuclear receptor corepressor 2 (P37231 whole entry): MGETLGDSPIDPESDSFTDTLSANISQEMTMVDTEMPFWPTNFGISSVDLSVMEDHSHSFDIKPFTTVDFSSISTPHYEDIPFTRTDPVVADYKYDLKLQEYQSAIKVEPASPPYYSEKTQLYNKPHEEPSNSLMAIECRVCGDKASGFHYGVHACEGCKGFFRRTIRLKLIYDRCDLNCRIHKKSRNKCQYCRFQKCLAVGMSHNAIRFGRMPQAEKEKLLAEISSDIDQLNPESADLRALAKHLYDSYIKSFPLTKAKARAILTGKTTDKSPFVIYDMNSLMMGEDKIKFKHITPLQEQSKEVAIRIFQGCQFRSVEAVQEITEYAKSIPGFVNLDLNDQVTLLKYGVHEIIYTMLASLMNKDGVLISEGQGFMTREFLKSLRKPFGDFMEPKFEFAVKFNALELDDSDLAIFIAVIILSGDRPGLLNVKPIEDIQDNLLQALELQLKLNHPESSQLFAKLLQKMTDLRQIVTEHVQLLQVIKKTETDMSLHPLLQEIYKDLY
Sequence of Peroxisome proliferator-activated receptor gamma/Nuclear receptor corepressor 2 (Q9Y618 whole entry): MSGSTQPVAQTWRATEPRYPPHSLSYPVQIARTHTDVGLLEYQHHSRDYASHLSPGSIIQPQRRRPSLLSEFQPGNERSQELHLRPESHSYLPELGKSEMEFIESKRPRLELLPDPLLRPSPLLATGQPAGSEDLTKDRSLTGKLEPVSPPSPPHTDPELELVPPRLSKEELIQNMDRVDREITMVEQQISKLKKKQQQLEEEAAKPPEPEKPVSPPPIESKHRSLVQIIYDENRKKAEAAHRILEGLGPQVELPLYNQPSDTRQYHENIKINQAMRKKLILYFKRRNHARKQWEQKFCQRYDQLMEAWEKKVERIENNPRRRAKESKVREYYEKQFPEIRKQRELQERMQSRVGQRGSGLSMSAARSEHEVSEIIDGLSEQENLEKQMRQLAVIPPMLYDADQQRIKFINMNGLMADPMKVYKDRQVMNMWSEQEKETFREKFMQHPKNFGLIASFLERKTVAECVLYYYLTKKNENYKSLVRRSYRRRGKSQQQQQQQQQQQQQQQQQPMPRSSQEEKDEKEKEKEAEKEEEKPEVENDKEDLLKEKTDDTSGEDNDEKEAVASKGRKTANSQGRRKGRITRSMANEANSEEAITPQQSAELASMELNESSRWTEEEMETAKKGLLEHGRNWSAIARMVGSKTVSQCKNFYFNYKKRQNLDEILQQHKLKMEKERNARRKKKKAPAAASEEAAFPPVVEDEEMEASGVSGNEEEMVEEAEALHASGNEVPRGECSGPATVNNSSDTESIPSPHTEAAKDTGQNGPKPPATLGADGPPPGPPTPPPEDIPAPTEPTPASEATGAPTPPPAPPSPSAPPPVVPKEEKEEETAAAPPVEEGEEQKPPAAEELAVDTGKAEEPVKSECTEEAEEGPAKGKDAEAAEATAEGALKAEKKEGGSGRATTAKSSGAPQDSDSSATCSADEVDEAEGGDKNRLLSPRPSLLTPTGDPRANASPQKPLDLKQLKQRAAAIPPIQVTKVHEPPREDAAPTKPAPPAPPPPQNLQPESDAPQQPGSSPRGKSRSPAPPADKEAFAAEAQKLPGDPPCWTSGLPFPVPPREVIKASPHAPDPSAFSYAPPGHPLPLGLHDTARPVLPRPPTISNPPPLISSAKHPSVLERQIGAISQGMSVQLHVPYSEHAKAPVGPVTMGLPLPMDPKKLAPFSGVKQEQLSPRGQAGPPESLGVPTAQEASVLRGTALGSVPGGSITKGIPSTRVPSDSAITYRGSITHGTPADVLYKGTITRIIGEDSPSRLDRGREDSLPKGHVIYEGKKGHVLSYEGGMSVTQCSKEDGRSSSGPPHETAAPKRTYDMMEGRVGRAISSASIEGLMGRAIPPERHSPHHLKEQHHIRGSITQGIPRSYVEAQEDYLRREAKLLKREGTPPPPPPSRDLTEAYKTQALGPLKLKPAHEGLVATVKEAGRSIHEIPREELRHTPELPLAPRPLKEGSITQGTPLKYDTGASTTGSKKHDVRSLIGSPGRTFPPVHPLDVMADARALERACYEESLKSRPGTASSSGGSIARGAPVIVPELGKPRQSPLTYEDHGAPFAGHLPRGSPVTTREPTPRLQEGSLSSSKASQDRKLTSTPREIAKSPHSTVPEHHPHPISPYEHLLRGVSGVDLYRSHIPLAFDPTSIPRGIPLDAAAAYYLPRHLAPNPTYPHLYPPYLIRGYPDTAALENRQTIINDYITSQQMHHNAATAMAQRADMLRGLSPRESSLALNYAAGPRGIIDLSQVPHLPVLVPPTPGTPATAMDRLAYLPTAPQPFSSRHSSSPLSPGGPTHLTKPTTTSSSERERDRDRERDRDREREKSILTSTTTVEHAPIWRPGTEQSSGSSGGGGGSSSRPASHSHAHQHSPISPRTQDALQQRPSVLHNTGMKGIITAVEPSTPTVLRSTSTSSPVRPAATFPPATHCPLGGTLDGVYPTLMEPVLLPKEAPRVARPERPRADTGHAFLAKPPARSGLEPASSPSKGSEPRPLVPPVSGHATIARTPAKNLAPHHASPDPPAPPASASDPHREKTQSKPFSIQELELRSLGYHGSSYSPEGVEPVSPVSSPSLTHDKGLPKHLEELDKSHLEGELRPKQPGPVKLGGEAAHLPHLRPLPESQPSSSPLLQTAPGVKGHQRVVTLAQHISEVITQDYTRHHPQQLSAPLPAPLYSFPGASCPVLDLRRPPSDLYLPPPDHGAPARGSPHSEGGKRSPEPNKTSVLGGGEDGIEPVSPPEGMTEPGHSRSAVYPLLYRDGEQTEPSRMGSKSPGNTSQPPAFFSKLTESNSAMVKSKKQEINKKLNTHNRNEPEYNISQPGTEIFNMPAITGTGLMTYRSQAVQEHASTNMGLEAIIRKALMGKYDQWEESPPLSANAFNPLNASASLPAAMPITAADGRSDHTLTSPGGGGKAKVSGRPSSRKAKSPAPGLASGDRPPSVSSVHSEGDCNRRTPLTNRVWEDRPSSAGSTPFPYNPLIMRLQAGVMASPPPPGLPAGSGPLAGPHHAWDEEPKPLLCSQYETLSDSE

SMILES: COC(=O)c1ccccc1NC(=O)c1nc(S(=O)(=O)Cc2ccccc2)ncc1Cl
- EC50 [1]: > 50 µM (not active)
- EC50 [2]: > 56 µM (not active)
- EC50 [3]: 3.08 µM (active)
- EC50 [4]: > 150 µM (not active)
- AC50 [5]: 1.84 µM (active)
- AC50 [6]: 6.88 µM (active)
- AC50 [7]: 0.428 µM (active)
- AC50 [8]: 8.03 µM (active)

SMILES: CC(C)(C)NC(=O)NC(=O)CN1CCN(c2cccc(Cl)c2)CC1
- IC50 [9]: 19.3 µM (not active)
- IC50 [10]: > 55.9 µM (not active)
- IC50 [11]: 8.64 µM (active)
- IC50 [12]: 3.16 µM (active)

SMILES: CCCCOc1ccc(-c2c(C#N)c(S)nc(C)c2C(=O)Nc2ccccc2)cc1
- IC50 [13]: 0.33 µM (active)
- IC50 [14]: 0.778 µM (active)

SMILES: N#Cc1ccc(C(=O)n2c3ccccc3c3ccccc32)cc1
- EC50 [2]: > 500 µM (not active)

SMILES: Cc1cccc(/N=C/c2[nH]c3ccc(Br)c(Cl)c3c2O)c1
- IC50 [9]: 13.1 µM (not active)
- IC50 [10]: 38.2 µM (not active)
- EC50 [15]: 0.46 µM (active)

SMILES: N=c1c(C(=O)NCCc2ccccc2)cc2c(=O)n3ccccc3nc2n1CCCN1CCOCC1
- IC50 [16]: > 43.8 µM (not active)
- IC50 [17]: > 43.8 µM (not active)
